Measured values from article PMC12045974, “T cell toxicity induced by tigecycline binding to the mitochondrial ribosome” (Nature Communications, 2025).
Several values for one entry are separate records, joined by “and”; a condition that tells them apart may be missing. Equal values may be shown once.

System: CD4+ and CD8+ T cells
Experiment: Short-term activation assay, CD25 expression on stimulated T cells
Format: cell-based, human
Settings: for mean MFI of CD25: 18 h after anti-CD3/CD28 activation + IL-2
Method: After thawing frozen PBMCs, cells were washed with RPMI complemented with 10% FBS, 2.05 mM L-glutamine (Sigma), and 55 μM 2-ME (Gibco) and rested at 37 °C (5% CO2) for 30 min. 250,000 cells per well were seeded in 96-well U-bottom plates with/without Human T-Activator CD3/CD28 beads (Invitrogen) at a 1:1 ratio and 10 ng/ml IL-2 (Proteintech) in RPMI-1640 medium mentioned above. At the same time, antibiotics were added. For the short-term activation assay, cells were harvested 18 h post-stimulation and stained with Aqua fixable live/dead dye (Invitrogen) and surface markers. For the proliferation assays, cells were stained with CFSE (eBioscience) or Cell Trace Violet (ThermoFisher Scientific) dyes before seeding and stimulation, according to the manufacturer’s recommendations. For TCR priming experiments, tigecycline was added at 0, 24 or 72 h post-activation. For mitochondrial mass measuring, cells were stained with Mitotracker Green Fm Dye (Thermo Fisher Scientific) after incubation with Tigecycline. After incubation for 6 days with a half medium (complete, with antibiotics and IL-2) change after 3 days, cells were harvested via centrifugation, and stained with live/dead dye and surface markers for analysis by flow cytometry. The Foxp3/Transcription Factor Staining Buffer Set (Invitrogen) was used to fix cells according to the manufacturer’s instructions. The FACS gating strategy is shown in Supplementary Fig. 2D. Flow cytometry was carried out on a BD Celesta (BD Biosciences) and analyzed in FlowJo (TreeStar) software.

CN(C)c1cc(NC(=O)CNC(C)(C)C)c(O)c2c1C[C@H]1C[C@H]3[C@H](N(C)C)C(O)=C(C(N)=O)C(=O)[C@@]3(O)C(O)=C1C2=O [Tigecycline, tigecycline] was tested, and the “mean MFI of CD25” value (CD4, 2.5 μM) was 3754 and 3553 and 3674, the “mean MFI of CD25” value (CD4, 5 μM) was 3471 and 3450 and 3256 and the “mean MFI of CD25” value (CD4, 10 μM) was 3082 and 3057 and 2814. For the same molecule, the “mean MFI of CD25” value (CD8, 2.5 μM) was 4522 and 5003 and 6223, the “mean MFI of CD25” value (CD8, 5 μM) was 4093 and 4409 and 4799 and the “mean MFI of CD25” value (CD8, 10 μM) was 3582 and 3463 and 3588. For the same molecule, the “expression of T cell activation marker CD25 (IL2RA)” value (stimulated CD4+ and CD8+ T cells, 18 h post-priming) was “reduced expression”.
